pIC50: −log10 of the molar value. Read-outs that look alike come from different tables or passages of the source.
What was measured:
Karpas 422 DLBCL cells = assay: Anti-proliferation assay (ATPLite, 72 h), Karpas 422; type: cell-based; conditions: in combination with CGS-21680
OCI-ly10 DLBCL cells = assay: Anti-proliferation assay (ATPLite, 72 h), OCI-ly10; type: cell-based; conditions: in combination with CGS-21680
SU-DHL6 DLBCL cells = assay: Anti-proliferation assay (ATPLite, 72 h), SU-DHL6; type: cell-based; conditions: in combination with CGS-21680
RPMI-8226 cells = assay: Anti-proliferation assay (ATPLite, 72 h), RPMI-8226; type: cell-based
[1] = system: GA-10 (Burkitt's lymphoma) cells; assay: Anti-proliferation assay (ATPLite, 72 h), GA-10; type: cell-based; conditions: x dexamethasone
[2] = system: Farage (non-Hodgkin's B cell lymphoma) cells; assay: Anti-proliferation assay (ATPLite, 72 h), Farage; type: cell-based; conditions: x dexamethasone
MM.1S cells [3] = assay: Anti-proliferation assay (ATPLite, 72 h), MM.1S; conditions: for pIC50: 2-fold dilutions
H929 cells = assay: Anti-proliferation assay (ATPLite, 72 h), H929; type: cell-based
MM.1S cells [4] = system: MM.1S cells

Structure (SMILES): Cn1c2ccccc2c2c3c(c4c5ccccc5n(CCC#N)c4c21)CNC3=O [Go 6976]
- synergy score (Karpas 422 DLBCL cells): 2.91
- synergy score (OCI-ly10 DLBCL cells): 1.61
- synergy score (SU-DHL6 DLBCL cells): 3.69

Structure (SMILES): OC[C@H]1O[C@H](n2cnc3c(NC4CC5CCC4C5)ncnc32)[C@H](O)[C@@H]1O (stereo partly drawn) [(S)-ENBA, S-N^6-(2-endo-norbornyl)adenosine]
- Synergy score with dexamethasone, RPMI-8226 (RPMI-8226 cells): 8.64
- synergy score [1]: 1.05
- synergy score [2]: 1.37
- Synergy score with dexamethasone, MM.1S (MM.1S cells [3]): 7.30
- percent inhibition of cell proliferation (MM.1S cells [3]; (S)-ENBA 0.173 μM alone): 14%
- percent inhibition of cell proliferation (MM.1S cells [3]; (S)-ENBA 0.519 μM alone): 14%
- percent inhibition of cell proliferation (MM.1S cells [3]; (S)-ENBA 1.56 μM alone): 50%
- percent inhibition of cell proliferation (MM.1S cells [3]; (S)-ENBA 4.67 μM alone): 49%
- percent inhibition of cell proliferation (MM.1S cells [3]; (S)-ENBA 14 μM alone): 62%
- activity and synergy in antiproliferation assays (MM.1S cells [3]; RPMI-8226, H929, MM.1S and MM.1R MM cell lines): active and synergistic
- pIC50 (MM.1S cells [3]; read-out: IC50 (+IL-6), MM.1S cells grown in presence of 10 ng/ml IL-6): 5.82
- pIC50 (MM.1S cells [3]; read-out: IC50 (no IL-6), MM.1S cells grown in absence of IL-6): 5.64
- Synergy score with dexamethasone, H929 (H929 cells): 7.82
- Percent inhibition of cell growth by (S)-ENBA (MM.1S cells [4]; (s)-ENBA 0.17 μM, 78 nM SCH58261): 4.5%
- Percent inhibition of cell growth by (S)-ENBA (MM.1S cells [4]; (s)-ENBA 0.17 μM, 175 nM MRS1754): 9.3%
- Percent inhibition of cell growth by (S)-ENBA (MM.1S cells [4]; (s)-ENBA 0.17 μM, 178 nM DPCPX): 2.4%
- Percent inhibition of cell growth by (S)-ENBA (MM.1S cells [4]; (s)-ENBA 0.17 μM, 183 nM MRS1523): 10%
- Percent inhibition of cell growth by (S)-ENBA (MM.1S cells [4]; (s)-ENBA 0.17 μM, no antagonist): 6%
- Percent inhibition of cell growth by (S)-ENBA (MM.1S cells [4]; (s)-ENBA 0.52 μM, 78 nM SCH58261): 6%
- Percent inhibition of cell growth by (S)-ENBA (MM.1S cells [4]; (s)-ENBA 0.52 μM, 175 nM MRS1754): 10%
- Percent inhibition of cell growth by (S)-ENBA (MM.1S cells [4]; (s)-ENBA 0.52 μM, 178 nM DPCPX): 18%
- Percent inhibition of cell growth by (S)-ENBA (MM.1S cells [4]; (s)-ENBA 0.52 μM, 183 nM MRS1523): 14%
- Percent inhibition of cell growth by (S)-ENBA (MM.1S cells [4]; (s)-ENBA 0.52 μM, no antagonist): 19%
- Percent inhibition of cell growth by (S)-ENBA (MM.1S cells [4]; (s)-ENBA 1.6 μM, 78 nM SCH58261): 14%
- Percent inhibition of cell growth by (S)-ENBA (MM.1S cells [4]; (s)-ENBA 1.6 μM, 175 nM MRS1754): 50%
- Percent inhibition of cell growth by (S)-ENBA (MM.1S cells [4]; (s)-ENBA 1.6 μM, 178 nM DPCPX): 37%
- Percent inhibition of cell growth by (S)-ENBA (MM.1S cells [4]; (s)-ENBA 1.6 μM, 183 nM MRS1523): 36%
- Percent inhibition of cell growth by (S)-ENBA (MM.1S cells [4]; (s)-ENBA 1.6 μM, no antagonist): 41%
- Percent inhibition of cell growth by (S)-ENBA (MM.1S cells [4]; (s)-ENBA 4.7 μM, 78 nM SCH58261): 12%
- Percent inhibition of cell growth by (S)-ENBA (MM.1S cells [4]; (s)-ENBA 4.7 μM, 175 nM MRS1754): 47%
- Percent inhibition of cell growth by (S)-ENBA (MM.1S cells [4]; (s)-ENBA 4.7 μM, 178 nM DPCPX): 77%
- Percent inhibition of cell growth by (S)-ENBA (MM.1S cells [4]; (s)-ENBA 4.7 μM, 183 nM MRS1523): 52%
- Percent inhibition of cell growth by (S)-ENBA (MM.1S cells [4]; (s)-ENBA 4.7 μM, no antagonist): 52%
- Percent inhibition of cell growth by (S)-ENBA (MM.1S cells [4]; (s)-ENBA 14 μM, 78 nM SCH58261): 45%
- Percent inhibition of cell growth by (S)-ENBA (MM.1S cells [4]; (s)-ENBA 14 μM, 175 nM MRS1754): 71%
- Percent inhibition of cell growth by (S)-ENBA (MM.1S cells [4]; (s)-ENBA 14 μM, 178 nM DPCPX): 89%
- Percent inhibition of cell growth by (S)-ENBA (MM.1S cells [4]; (s)-ENBA 14 μM, 183 nM MRS1523): 65%
- Percent inhibition of cell growth by (S)-ENBA (MM.1S cells [4]; (s)-ENBA 14 μM, no antagonist): 68%
